Laboratory results published in the NIST ThermoML archive (doi:10.1016/j.fluid.2016.07.022).
± gives the expanded uncertainty stated by the source.

Columns and labels:
[1] = 101.33 kPa, Liquid; for viscosity: Falling or rolling sphere viscometry; for speed of sound: Frequency=3 MHz, Single path-length method; for mass density: Vibrating tube method
[2] = wn = mass fraction of the nth substance listed; conditions: 298.15 K, 100 kPa, Liquid; for viscosity: Falling or rolling sphere viscometry; for speed of sound: Frequency=3 MHz, Single path-length method; for mass density: Vibrating tube method

| SMILES | viscosity ([1]; 293.15 K) | speed of sound ([1]; 293.15 K) | mass density ([1]; 293.15 K) | viscosity ([1]; 298.15 K) | speed of sound ([1]; 298.15 K) | mass density ([1]; 298.15 K) | viscosity ([1]; 303.15 K) | speed of sound ([1]; 303.15 K) | mass density ([1]; 303.15 K) | viscosity ([1]; 308.15 K) | speed of sound ([1]; 308.15 K) | mass density ([1]; 308.15 K) | viscosity ([1]; 313.15 K) | speed of sound ([1]; 313.15 K) | mass density ([1]; 313.15 K) | viscosity ([1]; 318.15 K) | speed of sound ([1]; 318.15 K) | mass density ([1]; 318.15 K) | viscosity ([1]; 323.15 K) | speed of sound ([1]; 323.15 K) | further results |
| --- | --- | --- | --- | --- | --- | --- | --- | --- | --- | --- | --- | --- | --- | --- | --- | --- | --- | --- | --- | --- | --- |
| CC(=O)[O-].CCCC[NH2+]CCO [N-(2-hydroxyethyl)butan-1-aminium acetate] | 548.2 ± 45 mPa·s | 1566.5 ± 3.7 m/s | 1021.2 ± 2.7 kg/m3 | 421.6 ± 31 mPa·s | 1546.5 ± 3.7 m/s | 1017.8 ± 2.7 kg/m3 | 295.4 ± 18 mPa·s | 1528.1 ± 3.7 m/s | 1014.3 ± 2.7 kg/m3 | 214.5 ± 11 mPa·s | 1510.8 ± 3.7 m/s | 1010.8 ± 2.7 kg/m3 | 158.4 ± 6.6 mPa·s | 1494 ± 3.7 m/s | 1007.3 ± 2.7 kg/m3 | 119 ± 4.2 mPa·s | 1477.6 ± 3.7 m/s | 1003.8 ± 2.6 kg/m3 | 89.4 ± 2.9 mPa·s | 1461.4 ± 3.7 m/s | mass density ([1]; 323.15 K): 1000.3 ± 2.6 kg/m3; viscosity ([1]; 328.15 K): 68.6 ± 2.3 mPa·s; speed of sound ([1]; 328.15 K): 1445.2 ± 3.7 m/s; mass density ([1]; 328.15 K): 996.6 ± 2.6 kg/m3; viscosity ([1]; 333.15 K): 54 ± 2.2 mPa·s; speed of sound ([1]; 333.15 K): 1429.3 ± 3.7 m/s; mass density ([1]; 333.15 K): 993 ± 2.6 kg/m3; viscosity ([1]; 338.15 K): 42.9 ± 2.1 mPa·s; speed of sound ([1]; 338.15 K): 1413.2 ± 3.7 m/s; mass density ([1]; 338.15 K): 989.3 ± 2.6 kg/m3; viscosity ([1]; 343.15 K): 34.5 ± 2.1 mPa·s; speed of sound ([1]; 343.15 K): 1397.2 ± 3.7 m/s; mass density ([1]; 343.15 K): 985.6 ± 2.6 kg/m3 |
| CCCC(=O)[O-].CCCC[NH2+]CCO [N-(2-hydroxyethyl)butan-1-aminium butyrate] + O |  |  |  |  |  |  |  |  |  |  |  |  |  |  |  |  |  |  |  |  | viscosity ([2]; w2 = 0.002762): 197.67 ± 9.7 mPa·s; viscosity ([2]; w2 = 0.004186): 190.86 ± 9.1 mPa·s; viscosity ([2]; w2 = 0.005795): 185.52 ± 8.7 mPa·s; viscosity ([2]; w2 = 0.006761): 182.63 ± 8.4 mPa·s; speed of sound ([2]; w2 = 0.002762): 1464.6 ± 3.7 m/s; speed of sound ([2]; w2 = 0.004186): 1466.2 ± 3.7 m/s; speed of sound ([2]; w2 = 0.005795): 1467.9 ± 3.7 m/s; speed of sound ([2]; w2 = 0.006761): 1468.9 ± 3.7 m/s; mass density ([2]; w2 = 0.002762): 980.15 ± 5.2 kg/m3; mass density ([2]; w2 = 0.004186): 981.17 ± 5.2 kg/m3; mass density ([2]; w2 = 0.005795): 982.18 ± 5.2 kg/m3; mass density ([2]; w2 = 0.006761): 982.74 ± 5.2 kg/m3 |
| CCCC[NH2+]CCO.O=C[O-] [N-(2-hydroxyethyl)butan-1-aminium formate] | 474.4 ± 37 mPa·s | 1616.5 ± 3.7 m/s | 1038.1 ± 2.7 kg/m3 | 332.8 ± 22 mPa·s | 1602.4 ± 3.7 m/s | 1035.1 ± 2.7 kg/m3 | 234.2 ± 13 mPa·s | 1588.4 ± 3.7 m/s | 1032.1 ± 2.7 kg/m3 | 170.2 ± 7.5 mPa·s | 1574.7 ± 3.7 m/s | 1029.1 ± 2.7 kg/m3 | 128.3 ± 4.6 mPa·s | 1561.4 ± 3.7 m/s | 1026.1 ± 2.7 kg/m3 | 96.9 ± 3.2 mPa·s | 1548.2 ± 3.7 m/s | 1023.1 ± 2.7 kg/m3 | 75 ± 2.5 mPa·s | 1535.1 ± 3.7 m/s | mass density ([1]; 323.15 K): 1020.1 ± 2.7 kg/m3; viscosity ([1]; 328.15 K): 57.3 ± 2.2 mPa·s; speed of sound ([1]; 328.15 K): 1522.2 ± 3.7 m/s; mass density ([1]; 328.15 K): 1017 ± 2.7 kg/m3; viscosity ([1]; 333.15 K): 45.7 ± 2.1 mPa·s; speed of sound ([1]; 333.15 K): 1509.2 ± 3.7 m/s; mass density ([1]; 333.15 K): 1013.9 ± 2.7 kg/m3; viscosity ([1]; 338.15 K): 36.3 ± 2.1 mPa·s; speed of sound ([1]; 338.15 K): 1496.4 ± 3.7 m/s; mass density ([1]; 338.15 K): 1010.9 ± 2.7 kg/m3; viscosity ([1]; 343.15 K): 29.3 ± 2.1 mPa·s; speed of sound ([1]; 343.15 K): 1483.4 ± 3.7 m/s; mass density ([1]; 343.15 K): 1007.8 ± 2.7 kg/m3 |
| CCCC(=O)[O-].CCCC[NH2+]CCO [N-(2-hydroxyethyl)butan-1-aminium butyrate] | 748.6 ± 69 mPa·s | 1484.6 ± 3.7 m/s | 983.7 ± 2.6 kg/m3 | 576.8 ± 48 mPa·s | 1466.6 ± 3.7 m/s | 980.1 ± 2.6 kg/m3 | 435.9 ± 32 mPa·s | 1449 ± 3.7 m/s | 976.6 ± 2.6 kg/m3 | 318.9 ± 20 mPa·s | 1431.9 ± 3.7 m/s | 973 ± 2.6 kg/m3 | 231.6 ± 12 mPa·s | 1415.2 ± 3.7 m/s | 969.4 ± 2.6 kg/m3 | 158.1 ± 6.6 mPa·s | 1398.7 ± 3.7 m/s | 965.7 ± 2.6 kg/m3 | 122.4 ± 4.3 mPa·s | 1382.4 ± 3.7 m/s | mass density ([1]; 323.15 K): 962 ± 2.6 kg/m3; viscosity ([1]; 328.15 K): 92.6 ± 3 mPa·s; speed of sound ([1]; 328.15 K): 1366.2 ± 3.7 m/s; mass density ([1]; 328.15 K): 958.3 ± 2.6 kg/m3; viscosity ([1]; 333.15 K): 69.8 ± 2.4 mPa·s; speed of sound ([1]; 333.15 K): 1350.2 ± 3.7 m/s; mass density ([1]; 333.15 K): 954.5 ± 2.6 kg/m3; viscosity ([1]; 338.15 K): 55.2 ± 2.2 mPa·s; speed of sound ([1]; 338.15 K): 1334.1 ± 3.7 m/s; mass density ([1]; 338.15 K): 950.7 ± 2.5 kg/m3; viscosity ([1]; 343.15 K): 43.1 ± 2.1 mPa·s; speed of sound ([1]; 343.15 K): 1318.2 ± 3.7 m/s; mass density ([1]; 343.15 K): 946.9 ± 2.5 kg/m3 |
| CCCCC(=O)[O-].CCCC[NH2+]CCO [N-(2-hydroxyethyl)butan-1-aminium pentanoate] | 896.3 ± 88 mPa·s | 1460 ± 3.7 m/s | 970 ± 2.6 kg/m3 | 684.1 ± 61 mPa·s | 1442.3 ± 3.7 m/s | 966.5 ± 2.6 kg/m3 | 505.8 ± 40 mPa·s | 1425.1 ± 3.7 m/s | 963 ± 2.6 kg/m3 | 349.9 ± 24 mPa·s | 1408.3 ± 3.7 m/s | 959.4 ± 2.6 kg/m3 | 244.1 ± 14 mPa·s | 1391.8 ± 3.7 m/s | 955.8 ± 2.6 kg/m3 | 177.1 ± 8 mPa·s | 1375.7 ± 3.7 m/s | 952.2 ± 2.5 kg/m3 | 131.1 ± 4.8 mPa·s | 1359.6 ± 3.7 m/s | mass density ([1]; 323.15 K): 948.5 ± 2.5 kg/m3; viscosity ([1]; 328.15 K): 98.1 ± 3.2 mPa·s; speed of sound ([1]; 328.15 K): 1343.8 ± 3.7 m/s; mass density ([1]; 328.15 K): 944.8 ± 2.5 kg/m3; viscosity ([1]; 333.15 K): 73.9 ± 2.5 mPa·s; speed of sound ([1]; 333.15 K): 1328 ± 3.7 m/s; mass density ([1]; 333.15 K): 941.1 ± 2.5 kg/m3; viscosity ([1]; 338.15 K): 57.9 ± 2.2 mPa·s; speed of sound ([1]; 338.15 K): 1312.2 ± 3.7 m/s; mass density ([1]; 338.15 K): 937.4 ± 2.5 kg/m3; viscosity ([1]; 343.15 K): 45.4 ± 2.1 mPa·s; speed of sound ([1]; 343.15 K): 1296.6 ± 3.7 m/s; mass density ([1]; 343.15 K): 933.6 ± 2.5 kg/m3 |
| CCC(=O)[O-].CCCC[NH2+]CCO [N-(2-hydroxyethyl)butan-1-aminium propionate] | 675.6 ± 60 mPa·s | 1513.8 ± 3.7 m/s | 1004.9 ± 2.6 kg/m3 | 502.6 ± 40 mPa·s | 1496.1 ± 3.7 m/s | 1001.4 ± 2.6 kg/m3 | 385.1 ± 27 mPa·s | 1478.9 ± 3.7 m/s | 997.9 ± 2.6 kg/m3 | 282.1 ± 17 mPa·s | 1462.2 ± 3.7 m/s | 994.4 ± 2.6 kg/m3 | 212 ± 11 mPa·s | 1445.9 ± 3.7 m/s | 990.8 ± 2.6 kg/m3 | 155 ± 6.3 mPa·s | 1429.7 ± 3.7 m/s | 987.3 ± 2.6 kg/m3 | 115.6 ± 4 mPa·s | 1413.7 ± 3.7 m/s | mass density ([1]; 323.15 K): 983.6 ± 2.6 kg/m3; viscosity ([1]; 328.15 K): 87.6 ± 2.8 mPa·s; speed of sound ([1]; 328.15 K): 1397.4 ± 3.7 m/s; mass density ([1]; 328.15 K): 979.9 ± 2.6 kg/m3; viscosity ([1]; 333.15 K): 67.4 ± 2.3 mPa·s; speed of sound ([1]; 333.15 K): 1381.6 ± 3.7 m/s; mass density ([1]; 333.15 K): 976.3 ± 2.6 kg/m3; viscosity ([1]; 338.15 K): 52.4 ± 2.2 mPa·s; speed of sound ([1]; 338.15 K): 1365.8 ± 3.7 m/s; mass density ([1]; 338.15 K): 972.5 ± 2.6 kg/m3; viscosity ([1]; 343.15 K): 41.6 ± 2.1 mPa·s; speed of sound ([1]; 343.15 K): 1350.1 ± 3.7 m/s; mass density ([1]; 343.15 K): 968.8 ± 2.6 kg/m3 |
